In assay [1] the test system is dendritic cells (CD11c+ cells). Put plainly: Study 1: activation of dendritic cells in lymph nodes after subcutaneous injection (flow cytometry). Type of assay: in vivo, Balb/c mice. To be noted: ~18 hours post subcutaneous injection near brachial LNs, relative to vehicle treated mice. The procedure: (§1) Unless otherwise stated, immune cell profiling was performed using flow cytometry on a BD (Beckton Dickinson) LSRII Fortessa.
(§2) The goal of this study was to investigate the in vivo effects of Compound I-263a alone or in combination with a TLR9 agonist (CpG) with respect to the recruitment and activation of innate immune cells at regional draining lymph nodes (LNs). On day 0 in the evening, eight to ten week old female Balb/c mice (Jackson Labs, Bar Harbor, Me.) were injected subcutaneously bilaterally close to the two brachial LNs (50 μL each side) with one of the formulations shown in Table 1 (n=5 mice per group). On day 1 (˜18 hours post injection) the mice were euthanized. The inflamed brachial LNs as well as the distal non-inflamed inguinal LNs were harvested from each mouse individually. Single cell suspensions were generated by homogenizing the LNs on a 70μ cell strainer using 3 mL syringe plungers, followed by wash with FACS staining buffer (BD Biosciences, Cat #554657). The cell pellet was re-suspended in 100 μL of FACS buffer for staining on a 96-well U-bottom tissue culture plate (Corning). Each sample was stained using the flow cytometry panel (see Table 2 below) of antibodies followed by acquisition and analysis on BD LSRII Fortessa. For positive controls, 1 drop of ultracomp beads (Invitrogen, Cat #01-2222-42) were stained with 1 μL of the respective antibodies.
On the technique in general: Flow cytometry measures light scatter and fluorescence of single cells or particles in a stream.

The test system of another assay is T cells and NK cells. Description: Study 1: early lymphocyte activation marker CD69 on T cells and NK cells in lymph nodes (flow cytometry). Type of assay: in vivo, Balb/c mice. The settings on record: ~18 hours post subcutaneous injection, Compound I-263a 7.5 mg/kg, CpG 2.5 mg/kg. As to the method: as §1, §2
In a further assay the test system is B16F10-OVA tumors. Put plainly: Study 3: prophylactic vaccination and B16F10-OVA tumor challenge. The settings on record: SC pre-treatment Day -14 to Day -4, tumor challenge Day 0; Ovalbumin 100 ug QWx2, Compound I-263a 15 mg/kg BIWx2, poly (I:C) 50 ug BIWx2; FIG. 5A/5B. The assay is classed as in vivo, C57BL/6 mice. As to the method: The goal of this study was to evaluate the prophylactic effects of OVA+Compound 1-263a vaccination in mice challenged with tumors expressing the OVA antigen (B16F10-OVA). The B16F10-OVA cell line was generated in-house by stable integration of the chicken ovalbumin gene into the Rosa26 locus. Eight to ten-week-old female C57BL/6 mice (Jackson Labs, Bar Harbor, Me.) were injected with one of the formulations shown in Table 5 subcutaneously (SC) near the nape. All mice were subsequently challenged on Day 0 with 0.3e6 B16F10-OVA tumor cells/mouse subcutaneously (n=16 mice/group, except group 5 (ovalbumin+Compound 1-263a) for which n=15). Tumor growth was measured every 2-3 days using digital calipers and tumor volume was calculated as: L×W×(W/2).

With `Cc1sc(C(=O)c2cncnc2N[C@@H]2C[C@H](COS(N)(=O)=O)[C@@H](O)C2)cc1[C@@H]1NCCc2ccc(Cl)cc21` [Compound I-263a, [(1R,2S,4R)-4-{[5-({4-[(1R)-7-chloro-1,2,3,4-tetrahydroisoquinolin-1-yl]-5-methyl-2-thienyl}carbonyl)pyrimidin-4-yl]amino}-2-hydroxycyclopentyl]methyl sulfamate], the “expression of marker CD86 on CD11c+ cells in the distal inguinal LNs” value in assay [1] (7.5 mg/kg, FIG. 1b) is given as “but not in the distal inguinal LNs”. Also, the “expression of marker CD40 on CD11c+ cells in the brachial LNs” value in assay [1] (Compound I-263a 7.5 mg/kg, CpG 2.5 mg/kg, FIG. 1a) is “increases”. Also, in assay [1] (Compound I-263a 7.5 mg/kg, CpG 2.5 mg/kg, FIG. 1b), the “expression of marker CD86 on CD11c+ cells in the brachial LNs” value is on record as “increases”. Besides, in the assay with T cells and NK cells (FIG. 2a), the “early lymphocyte activation marker CD69 on T cells in the brachial LNs” value was “changes in the early lymphocyte activation marker CD69 were observed”. Further, the “early lymphocyte activation marker CD69 on NK cells in the brachial LNs” value in the assay with T cells and NK cells (FIG. 2b) is on record as “changes in the early lymphocyte activation marker CD69 were observed”. Also, in the assay on B16F10-OVA tumors, the “growth of B16-F10 tumors expressing OVA (tumor protection)” value is listed as “did not confer tumor protection”.

B1: OVA: chicken ovalbumin protein antigen, EndoFit Ovalbumin, InvivoGen (protein, UniProt P01012 2-386, looked up)
Ovalbumin: GSIGAASMEFCFDVFKELKVHHANENIFYCPIAIMSALAMVYLGAKDSTRTQINKVVRFDKLPGFGDSIEAQCGTSVNVHSSLRDILNQITKPNDVYSFSLASRLYAEERYPILPEYLQCVKELYRGGLEPINFQTAADQARELINSWVESQTNGIIRNVLQPSSVDSQTAMVLVNAIVFKGLWEKAFKDEDTQAMPFRVTEQESKPVQMMYQIGLFRVASMASEKMKILELPFASGTMSMLVLLPDEVSGLEQLESIINFEKLTEWTSSNVMEERKIKVYLPRMKMEEKYNLTSVLMAMGITDVFSSSANLSGISSAESLKISQAVHAAHAEINEAGREVVGSAEAGVDAASVSEEFRADHPFLFCIKHIATNAVLFFGRCVSP
For B1, the “growth of B16-F10 tumors expressing OVA (tumor protection)” value in the assay with B16F10-OVA tumors is listed as “did not confer tumor protection”.
